Source: patent US12251387B2, “Substituted quinoxalines and benzo[c][1,2,5]oxadiazoles as DNA-PK inhibitors” (Vertex Pharmaceuticals Incorporated, priority 2013, dated 2025)
pKi: −log10 of the molar value.

Each compound was assayed against DNA-PK (Homo sapiens, UniProt P78527) (assay: DNA-PK Inhibition Assay (standard radiometric kinase assay, 33P-ATP, peptide substrate)). Conditions: radiometric assay, approximately 6 nM DNA-PK, 100 μM ATP, 45 min; fit to competitive tight-binding inhibition; read-out: Ki for the inhibition of DNA-PK.
Type: biochemical
How it was run: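 Radiometric transfer of 33P from ATP (100 μM) to peptide substrate (0.8 mg/mL) by about 6 nM DNA-PK with 10 μg/mL sheared dsDNA, pH 7.5 HEPES/MgCl2, 45 min, phosphoric acid quench, filter capture and scintillation counting. Ki fitted to a competitive tight-binding inhibition model.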

pKi, > 7.00:
Clc1cncnc1N[C@H]1CC[C@@H](Oc2cc(N3CCOCC3)cc3nccnc23)CC1 [Compound 409]
Cc1ncc(C)c(N[C@H]2CC[C@@H](Oc3cc(N4CCOCC4)cc4nccnc34)CC2)n1 [Compound 490]
Clc1nccc(N[C@H]2CC[C@@H](Oc3cc(N4CCOCC4)cc4nccnc34)CC2)n1 [Compound 533]
CN1CCN(C(=O)c2cnc(N[C@H]3CC[C@@H](Oc4cc(N5CCOCC5)cc5nccnc45)CC3)nc2)CC1 [Compound 337]
CC(C)(C)OC(=O)N1CCC(c2cnc(N[C@H]3CC[C@@H](Oc4cc(N5CCOCC5)cc5nccnc45)CC3)nc2)C1 (stereo partly shown) [Compound 570]
Fc1c(N[C@H]2CC[C@@H](Oc3cc(N4CCOCC4)cc4nccnc34)CC2)ncnc1N1CCOCC1 [Compound 511]
CCc1ncnc(N[C@H]2CC[C@@H](Oc3cc(N4CC5CC(C4)O5)cc4nccnc34)CC2)c1F [Compound 318]
Cc1ncc(N[C@H]2CC[C@@H](Oc3cc(N4CCOCC4)cc4nccnc34)CC2)nc1C [Compound 314]
Cc1nc2c(c(N[C@H]3CC[C@@H](Oc4cc(N5CCOCC5)cc5nccnc45)CC3)n1)COC2 [Compound 452]
Cc1cc(N[C@H]2CC[C@@H](Oc3cc(N4CCOCC4)cc4nccnc34)CC2)n[nH]c1=O [Compound 599]
COC(=O)c1cc(N[C@H]2CC[C@@H](Oc3cc(N4CCOCC4)cc4nccnc34)CC2)ncc1O [Compound 404]
CN1CCN(CCOc2cc(N[C@H]3CC[C@@H](Oc4cc(N5CCOCC5)cc5nccnc45)CC3)ncn2)CC1 [Compound 562]
c1cc2ccoc2c(N[C@H]2CC[C@@H](Oc3cc(N4CCOCC4)cc4nccnc34)CC2)n1 [Compound 470]
Cc1cnc2c(O[C@H]3CC[C@@H](Nc4ncc(C5CCN(C)CC5)cn4)CC3)cc(N3CCOCC3)cc2n1 [Compound 543]
CCc1cc(N[C@H]2CC[C@@H](Oc3cc(N4CCOCC4)cc4nccnc34)CC2)ncn1 [Compound 651]
c1cnc2c(O[C@H]3CC[C@@H](Nc4cncc5nccn45)CC3)cc(N3CCOCC3)cc2n1 [Compound 336]
CN(C)C(=O)N[C@H]1CC[C@@H](Oc2cc(N3CCOCC3)cc3nccnc23)CC1 [Compound 411]
CN1CCN(c2ccnc(N[C@H]3CC[C@@H](Oc4cc(N5CCOCC5)cc5nccnc45)CC3)n2)CC1 [Compound 547]
Fc1cnc(N[C@H]2CC[C@@H](Oc3cc(N4CCOCC4)cc4nccnc34)CC2)c(F)c1 [Compound 594]
Oc1nc(N[C@H]2CC[C@@H](Oc3cc(N4CCOCC4)cc4nccnc34)CC2)nc(C2CC2)n1 [Compound 600]
CN1CCN(CCOc2ccc(N[C@H]3CC[C@@H](Oc4cc(N5CCOCC5)cc5nccnc45)CC3)nc2)CC1 [Compound 655]
FC(F)(F)c1ccnc(N[C@H]2CC[C@@H](Oc3cc(N4CCOCC4)cc4nccnc34)CC2)c1 [Compound 589]
Clc1nc(N[C@H]2CC[C@@H](Oc3cc(N4CCOCC4)cc4nccnc34)CC2)c2cn[nH]c2n1 [Compound 423]
c1cnc2c(O[C@H]3CC[C@@H](Nc4ncc(OCCN5CCOCC5)cn4)CC3)cc(N3CCOCC3)cc2n1 [Compound 585]
O=C1Cc2c(ncnc2N[C@H]2CC[C@@H](Oc3cc(N4CCOCC4)cc4nccnc34)CC2)N1 [Compound 502]
c1cnc(O[C@H]2CC[C@H](Oc3cc(N4CCOCC4)cc4nccnc34)CC2)nc1 [Compound 34, 4-(8-(((trans)-4-(pyrimidin-2-yloxy)cyclohexyl)oxy)quinoxalin-6-yl)morpholine]
COc1cnc(Cl)nc1N[C@H]1CC[C@@H](Oc2cc(N3CCOCC3)cc3nccnc23)CC1 [Compound 401]
OCc1cnc(N[C@H]2CC[C@@H](Oc3cc(N4CCOCC4)cc4nccnc34)CC2)cn1 [Compound 577]
c1cnc2c(O[C@H]3CC[C@@H](Nc4ncc(CN5CCCCC5)cn4)CC3)cc(N3CCOCC3)cc2n1 [Compound 495]
CN1CCN(CCCOc2cnc(N[C@H]3CC[C@@H](Oc4cc(N5CCOCC5)cc5nccnc45)CC3)nc2)CC1 [Compound 508]
c1cn2ccnc2c(N[C@H]2CC[C@@H](Oc3cc(N4CCOCC4)cc4nccnc34)CC2)n1 [Compound 372]
CN1CCN(C(=O)N[C@H]2CC[C@@H](Oc3cc(N4CCOCC4)cc4nccnc34)CC2)CC1 [Compound 414]
CNC(=O)c1cc(N[C@H]2CC[C@@H](Oc3cc(N4CC5CC(C4)O5)cc4nccnc34)CC2)ncn1 [Compound 315]
Cc1cc(N[C@H]2CC[C@@H](Oc3cc(N4CCOCC4)cc4nccnc34)CC2)cc(C)n1 [Compound 286]
Oc1nccc(N[C@H]2CC[C@@H](Oc3cc(N4CCOCC4)cc4nccnc34)CC2)n1 [Compound 280]
CN1CCN(CCc2cnc(N[C@H]3CC[C@@H](Oc4cc(N5CCOCC5)cc5nccnc45)CC3)nc2)CC1 [Compound 430]
CC1(C)OCc2cc(N[C@H]3CC[C@@H](Oc4cc(N5CCOCC5)cc5nccnc45)CC3)cnc21 [Compound 571]
CN1CCN(Cc2cnc(N[C@H]3CC[C@@H](Oc4cc(N5CCOCC5)cc5nccnc45)CC3)nc2)CC1 [Compound 497]
Clc1nc(N[C@H]2CC[C@@H](Oc3cc(N4CCOCC4)cc4nccnc34)CC2)c2[nH]ccc2n1 [Compound 513]
c1cc(N[C@H]2CC[C@@H](Oc3cc(N4CCOCC4)cc4nccnc34)CC2)nc(OCCN2CCCCC2)n1 [Compound 493]
N#CCCN1CCC(c2cnc(N[C@H]3CC[C@@H](Oc4cc(N5CCOCC5)cc5nccnc45)CC3)nc2)CC1 [Compound 519]
O=C(N[C@H]1CC[C@@H](Oc2cc(N3CCOCC3)cc3nccnc23)CC1)N1CCOCC1 [Compound 412]
Cc1cc(N[C@H]2CC[C@@H](Oc3cc(N4CCOCC4)cc4nccnc34)CC2)n2cnnc2n1 [Compound 500]
CN(C)CCOc1ccnc(N[C@H]2CC[C@@H](Oc3cc(N4CCOCC4)cc4nccnc34)CC2)n1 [Compound 559]
Clc1nc(N[C@H]2CC[C@@H](Oc3cc(N4CCOCC4)cc4nccnc34)CC2)nc2cc[nH]c12 [Compound 514]
Cc1noc(-c2ccc(N[C@H]3CC[C@@H](Oc4cc(N5CCOCC5)cc5nccnc45)CC3)nc2)n1 [Compound 278]
NC1(c2ccc(N[C@H]3CC[C@@H](Oc4cc(N5CCOCC5)cc5nccnc45)CC3)cn2)CC1 [Compound 466]
c1nc(N[C@H]2CC[C@@H](Oc3cc(N4CCOCC4)cc4nccnc34)CC2)cc(C2CC2)n1 [Compound 650]
CCc1nccc(N[C@H]2CC[C@@H](Oc3cc(N4CCOCC4)cc4nccnc34)CC2)n1 [Compound 439]
c1cnc(NC[C@H]2CC[C@@H](Oc3cc(N4CCOCC4)cc4nccnc34)CC2)nc1 [Compound 348]
COCCNc1ncnc(N[C@H]2CC[C@@H](Oc3cc(N4CCOCC4)cc4nccnc34)CC2)c1F [Compound 382]
CNC(=O)c1cc(N[C@H]2CC[C@@H](Oc3cc(N4CCOCC4)cc4nccnc34)CC2)ccc1F [Compound 405]
N#Cc1cncnc1N[C@H]1CC[C@@H](Oc2cc(N3CCOCC3)cc3nccnc23)CC1 [Compound 422]
CN(C)CCOc1cnc(N[C@H]2CC[C@@H](Oc3cc(N4CCOCC4)cc4nccnc34)CC2)nc1 [Compound 624]
Cc1cnc(N[C@H]2CC[C@@H](Oc3cc(N4CCOCC4)cc4nccnc34)CC2)cn1 [Compound 282]
CN(C)c1ncnc(N[C@H]2CC[C@@H](Oc3cc(N4CCOCC4)cc4nccnc34)CC2)c1F [Compound 512]
c1cnc2c(O[C@H]3C[C@@H](Nc4ncc5c(n4)COC5)C3)cc(N3CCOCC3)cc2n1 [Compound 355]
O=C(O)c1cc(N[C@H]2CC[C@@H](Oc3cc(N4CCOCC4)cc4nccnc34)CC2)ncn1 [Compound 653]
c1cc(C2CC2)nc(N[C@H]2CC[C@@H](Oc3cc(N4CCOCC4)cc4nccnc34)CC2)n1 [Compound 455]
COc1ccnc(N[C@H]2CC[C@@H](Oc3cc(N4CCOCC4)cc4nccnc34)CC2)c1 [Compound 627]
Cc1ccc(N[C@H]2CC[C@@H](Oc3cc(N4CCOCC4)cc4nccnc34)CC2)cn1 [Compound 444]
Cc1ncccc1N[C@H]1CC[C@@H](Oc2cc(N3CCOCC3)cc3nccnc23)CC1 [Compound 442]
c1nc2c(c(N[C@H]3CC[C@@H](Oc4cc(N5CCOCC5)cc5nccnc45)CC3)n1)COC2 [Compound 475]
FC(F)(F)c1cc(N[C@H]2CC[C@@H](Oc3cc(N4CCOCC4)cc4nccnc34)CC2)ncn1 [Compound 417]
Cn1nc(N[C@H]2CC[C@@H](Oc3cc(N4CCOCC4)cc4nccnc34)CC2)c2ccccc21 [Compound 298]
COc1ccc(N[C@H]2CC[C@@H](Oc3cc(N4CCOCC4)cc4nccnc34)CC2)cn1 [Compound 447]
c1cnc2c(O[C@H]3CC[C@@H](Nc4ncc(C5CCNC5)cn4)CC3)cc(N3CCOCC3)cc2n1 (stereo partly shown) [Compound 569]
CCOc1ccc(N[C@H]2CC[C@@H](Oc3cc(N4CCOCC4)cc4nccnc34)CC2)nc1 [Compound 658]
Cc1nccc(N[C@H]2C[C@@H](Oc3cc(N4CCOCC4)cc4nccnc34)C2)n1 [Compound 357]
CC(C)(O)c1ccnc(N[C@H]2CC[C@@H](Oc3cc(N4CCOCC4)cc4nccnc34)CC2)c1 [Compound 573]
